# Reference: patent US4072810A, “Coupled peroxides” (priority 1973, dated 1978)
# Where two headings read alike, the source gives them in different places.
# Legend:
# [1] = in words; milling step; cited from earlier work
# [2] = Initiation of vinyl monomer (styrene) polymerization
# Experimental: This example illustrates the use of coupled peroxides of present disclosures as initiators of vinyl monomer polymerization. Compound [B] (from Example V) at a concentration of 5 × 10^-4 moles per deciliter of styrene, polymerized styrene at 100° C. at a rate of 6.20 × 10^-3 moles per liter per minute. When no initiator is present, the thermal polymerization of styrene at 100° C. proceeds at a rate of 2.82 × 10^-3 moles per liter per minute. Compound [A] (from Examples I, II, and III) at a concentration of 5 × 10^-4 moles per diciliter of styrene polymerized styrene 1.65 faster at 115° C. than the thermal polymerization rate when no polymerization initiator is present.
# [3] = Crosslinking of polyethylene (Table I, xylene solvent extraction); details: for % Crosslinking: 30 minutes; for efficiency as crosslinking agent: in words, see Table I
# Experimental: A mixture of the desired polymeric material and 0.01 mole of the difunctional coupled compound is blended together on a standard roll mill, such as used in the rubber industry. […]
# The slabs are permitted to cool down and mature at room temperature for 24 hours. The mature slabs were then cut into dumbell shaped samples and tested for tensile strength on an Instron Tensile Tester, following ASTM procedure as described in D412-61T "Tension Testing of Vulcanized Rubber" or the crosslinking in the case of polyethylene is determined by the solvent extraction procedure. In addition to the polymer-peroxide mixture, the crosslinkable mixture, may contain co-agents such as sulfur, promoters, fillers, and reinforcing materials. Desirable fillers are carbon black, titanium dioxide, calcium silicate and alkaline earth metal carbonates.
# In Table I the crosslinking ability of the coupled compounds of our invention in polyethylene are compared to a hydroxy-containing peroxide and to difunctional peroxides. Tables II, III, and IV show the versatility of the product of our invention in urethane rubber, ethylene-propylene rubber and silicone rubber.
# The polyethylene used for this test was a low density polyethylene
# Bakelite DYNH-1, having the following physical properties:
# The crosslinking test was carried out at 340° and 375° F.
# (1) The percentage crosslinking was determined by extraction of the
# crosslinked sample with refluxing xylene. In all cases the polyethylene
# charge was 100% extractable before crosslinking.
# (2) Based on number of active oxygens per mole.
# [4] = S.P.I. exotherm, curing an unsaturated polyester-styrene resin (Table V); details: 1% concentration; for Cure Time / Gel Time: 115° C.; for Peak: exotherm at 115° C.
# Experimental: An unsaturated polyester resin was made by reacting maleic anhydride (1.0 mole), phthalic anhydride (1.0 mole), and propylene glycol (2.2 mole) until an acid number of 45-50 was obtained. To this was added hydroquinone at a 0.013% concentration. Seven parts of this unsaturated polyester was diluted with 3 parts of monomeric styrene to obtain a homogeneous blend having a viscosity of 13.08 poise and a specific gravity of 1.14. To 20 g. of this blend was added the 0.2 g. of the desired coupled peroxide and the resulting composition placed in a constant temperature bath at 115° C.
# The internal temperature was recorded as function of time. The following results were obtained with some of the coupled compounds (Table V):
# S.P.I. EXOTHERM AT 115° C. AND 1% CONCENTRATION
# IN POLYESTER RESIN PREPARED IN EXAMPLE VIII
# [5] = Half-life of coupled and uncoupled hydroxy-peroxides in benzene; assay type: physicochemical; details: for t1/2: benzene, 0.1 molar, 100000 µM; for half-life relative to the hydroxy containing peroxide precursors: in words, see Example XVI
# Source text: Half-Life Comparisons of Coupled and Uncoupled Hydroxy-Peroxides (Carried out in Benzene at 0.1 molar concentrations)
# [6] = Volatility and thermal stability of peroxides (in words); assay type: physicochemical
# Source text: Some of the desirable properties that a peroxide has to have to be useful for crosslinking polyethylene are: low volatility, high thermal stability, and good efficiency with respect to its active oxygen content.
# The volatility and the thermal stability are necessary requisites, since the peroxide has to tolerate the high temperatures of the milling operation, which is a necessary step to incorporate the peroxide with the polymer before the crosslinking process. If the peroxide is too volatile (as in the case of di-t-butyl peroxide) there would not be any peroxide left for the crosslinking process at the end of the milling step. If the peroxide is not volatile, but its thermal stability is low, a premature decomposition of the peroxide will take place during the milling step, which results in a premature crosslinking of the polymer. If this happens, the polymer cannot be shaped or formed any further since the thermoplastic polymer has become thermoset too soon.
SMILES,"% Crosslinking ([3]; 340° F., 0.010 molar equivs.) [%]","% Crosslinking ([3]; 375° F., 0.010 molar equivs.) [%]",Cure Time [4] [min],Gel Time [4] [min],Peak [4] [° F],"% Crosslinking ([3]; 340° F., 0.015 molar equivs.) [%]","% Crosslinking ([3]; 375° F., 0.015 molar equivs.) [%]",efficiency as crosslinking agent [3],other results
CC(C)(C)OOC(C)(C)C [di-t-butyl peroxide],–,–,–,–,–,–,–,–,volatility [1]: too volatile
"CC(CC(C)(C)OOC(C)(C)C)OC(=O)OC(C)CC(C)(C)OOC(C)(C)C (stereo not drawn) [Di[1,3-dimethyl-3-(t-butylperoxy)butyl] carbonate]",89.3,89.7,11.1,9.5,455,–,–,–,"styrene polymerization, faster than the thermal polymerization rate when no initiator is present ([2]; 115° C., 5 × 10^-4 moles per diciliter of styrene): 1.65; t1/2 ([5]; 115° C.): 26.8 h; half-life relative to the hydroxy containing peroxide precursors [5]: almost double"
CC(C)(C)OOC(=O)CCOC(=O)OCCC(=O)OOC(C)(C)C [Di[2-(t-butylperoxycarbonyl)ethyl]carbonate],–,–,8.5,7.1,450,–,–,–,"rate of styrene polymerization ([2]; 100° C., 5 × 10^-4 moles per deciliter of styrene): 6.20 × 10^-3 moles per liter per minute; t1/2 ([5]; 100° C.): 30.7 h; half-life relative to the hydroxy containing peroxide precursors [5]: almost double"
"CC(CC(C)(C)OOC(C)(C)C)OC(=O)CCC(=O)OC(C)CC(C)(C)OOC(C)(C)C (stereo not drawn) [Di[1,3-dimethyl-3-(t-butylperoxy)butyl]succinate]",88.9,89.2,–,–,–,–,–,–,–
"CC(C)(C)OOC(C)(C)CCC(C)(C)OOC(C)(C)C [2,5-dimethyl-2,5-di(t-butylperoxy)-hexane]",85.9,84.5,–,–,–,89.3,88.0,not as efficient in utilizing their active oxygen content as the difunctional peroxide of our invention,–
"CC(C)(C)OOC(C)(C)C#CC(C)(C)OOC(C)(C)C [2,5-dimethyl-2,5-di(t-butylperoxy)-hexyne-3]",81.8,84.9,–,–,–,86.0,87.7,not as efficient in utilizing their active oxygen content as the difunctional peroxide of our invention,–
"CC(CC(C)(C)OOC(C)(C)C)OC(=O)OCCOC(=O)OC(C)CC(C)(C)OOC(C)(C)C (stereo not drawn) [Ethylene Bis[1,3-dimethyl-3-(t-butylperoxy)-butyl carbonate]]",87.9,87.4,12.8,10.8,450,–,–,–,–
CC(O)CC(C)(C)OOC(C)(C)C (stereo not drawn) [2-Methyl-2-(t-butylperoxy)-4-pentanol],–,–,–,–,–,78.4,75.4,poor,thermal stability [6]: good; volatility [6]: low; t1/2 ([5]; 115° C.): 13.6 h
"CC(C)(C)OOC(=O)CCO [t-butylperoxy 3-hydroxypropionate, reference compound]",–,–,–,–,–,–,–,–,t1/2 ([5]; 100° C.): 13.0 h
